Laboratory results: patent US11999727B2 (Tango Therapeutics, Inc., priority 2020, dated 2024)
Like-named read-outs stand apart in the source and are kept apart here.

Legend:
PRMT5 [1] = molecular target: T1, PRMT5 (Homo sapiens, UniProt O14744); test: PRMT5 biochemical IC50 assay with no cofactor; details: PRMT5, no cofactor; read-out: No Cofactor/rel IC50
T1 construct: purchased Viva (custom protein)
Text: Table 1 indicates IC50 values (μM) against PRMT5 for exemplary compounds in the presence of SAM as cofactor, with no cofactor, and with MTA as cofactor, respectively (columns 4-6). […] Ki values can be calculated from the IC50 values as described in the Examples section. As detailed in the Examples section, for the assay performed in the presence of SAM, IC50=Ki×1.5 (Ki=IC50/1.5).

PRMT5 [2] = molecular target: T1, PRMT5; test: PRMT5 biochemical IC50 assay with MTA as cofactor; details: PRMT5, MTA as cofactor; read-out: MTA IC50
[3] = test system: HAP1 MTAP-intact cell line; test: SDMA in-cell western assay, HAP1 MTAP-intact; format: cell-based; details: Homo sapiens
Outline: (§1)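 Compounds were tested in HAP1 cells differing only in MTAP status (endogenous expression versus null). Cellular SDMA levels were then measured by in-cell western, giving an IC50 in each background.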

[4] = test system: HAP1 MTAP-deleted cell line; test: SDMA in-cell western assay, HAP1 MTAP-deleted; format: cell-based
Outline: as §1

PRMT5 [5] = molecular target: T1, PRMT5; test: PRMT5 biochemical IC50 assay with SAM as cofactor; details: PRMT5, SAM as cofactor; read-out: SAM IC50
[6] = HAP1, SDMA in-cell western, HAP1 MTAP-intact, read-out: MTAP HAP1 intact IC50
[7] = Homo sapiens, HAP1, SDMA in-cell western, HAP1 MTAP-deleted, read-out: HAP1 MTAP deleted IC50
[8] = IC50 ratio HAP1 MTAP-intact / HAP1 MTAP-deleted, SDMA in-cell western
[9] = Homo sapiens, HAP1, SDMA in-cell western, HAP1 MTAP-deleted, read-out: HAP 1 MTAP deleted IC50
[10] = IC50 ratio HAP1 MTAP-intact vs HAP1 MTAP-deleted, SDMA in-cell western

T1 sequence (O14744 whole entry): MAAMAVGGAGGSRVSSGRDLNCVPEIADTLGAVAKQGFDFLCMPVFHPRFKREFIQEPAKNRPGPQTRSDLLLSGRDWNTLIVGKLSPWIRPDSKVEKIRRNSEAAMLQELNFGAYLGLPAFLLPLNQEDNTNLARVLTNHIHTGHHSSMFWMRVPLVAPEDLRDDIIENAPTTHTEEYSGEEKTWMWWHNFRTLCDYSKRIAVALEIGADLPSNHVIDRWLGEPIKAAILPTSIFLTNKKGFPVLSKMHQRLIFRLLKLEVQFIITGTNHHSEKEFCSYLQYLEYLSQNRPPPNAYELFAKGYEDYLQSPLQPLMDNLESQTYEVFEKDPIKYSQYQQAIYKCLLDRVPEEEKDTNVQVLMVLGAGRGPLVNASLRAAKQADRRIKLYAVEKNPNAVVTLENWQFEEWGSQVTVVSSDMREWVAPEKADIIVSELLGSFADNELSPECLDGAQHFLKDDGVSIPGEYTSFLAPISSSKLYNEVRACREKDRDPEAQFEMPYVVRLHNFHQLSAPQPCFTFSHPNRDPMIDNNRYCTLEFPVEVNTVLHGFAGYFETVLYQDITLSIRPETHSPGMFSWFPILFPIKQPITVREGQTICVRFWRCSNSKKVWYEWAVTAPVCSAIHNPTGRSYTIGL
T1 sequence (Q9BQA1 whole entry partner): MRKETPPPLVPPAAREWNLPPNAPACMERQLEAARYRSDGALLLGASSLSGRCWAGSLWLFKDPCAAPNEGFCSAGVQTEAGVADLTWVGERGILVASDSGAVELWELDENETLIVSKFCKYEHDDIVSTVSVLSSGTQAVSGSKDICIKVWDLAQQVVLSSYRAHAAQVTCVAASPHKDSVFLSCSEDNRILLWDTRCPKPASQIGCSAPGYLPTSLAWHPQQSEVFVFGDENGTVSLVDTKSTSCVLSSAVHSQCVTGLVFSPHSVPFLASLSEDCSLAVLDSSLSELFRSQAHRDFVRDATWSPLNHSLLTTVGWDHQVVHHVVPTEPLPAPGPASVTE

| IC50 (PRMT5 [1]) [nM] | IC50 (PRMT5 [2]) [nM] | IC50 [3, 6] [nM] | IC50 [4, 7] [nM] | IC50 (PRMT5 [5]) [nM] | IC50 ([4]; SDMA in-cell western, HAP1 MTAP-deleted, read-out: HAP1 MTAP deleted IC50) [nM] | IC50 [4, 9] [nM] | Compound | MTAP intact/deleted ratio [4, 8] | IC50 ([3]; HAP1, read-out: MTAP HAP1 intact IC50) [nM] | IC50 ([4]; Homo sapiens, HAP1, read-out: HAP1 MTAP deleted IC50) [nM] | MTAP intact/deleted ratio [4, 10] |
| --- | --- | --- | --- | --- | --- | --- | --- | --- | --- | --- | --- |
| > 500 | > 500 | > 1000 | > 1000 | > 500 |  |  | COc1ncc(NC(=O)C(=O)N2C[C@H](C)CC[C@H]2c2cccs2)cc1C(N)=O (single isomer, unassigned) [Compound 310] | C (an IC50 ratio of less than 3 fold) |  |  |  |
| > 500 | 50 to 500 | > 1000 | > 1000 | > 500 |  |  | CNc1cccc([C@H]2CCCCN2C(=O)C(=O)Nc2cncc(C(N)=O)c2)c1 (single isomer, unassigned) [Compound 316] | C (an IC50 ratio of less than 3 fold) |  |  |  |
| > 500 | > 500 | > 1000 |  | > 500 | > 1000 |  | COc1ncc(NC(=O)C(=O)N2CCCCC2C2CCCCC2)cc1C(N)=O (single isomer, unassigned) [Compound 317, 5-(2-(2-cyclohexylpiperidin-1-yl)-2-oxoacetamido)-2-methoxynicotinamide] | C (an IC50 ratio of less than 3 fold) |  |  |  |
| > 500 | > 500 | > 1000 | > 1000 | > 500 |  |  | CNc1cccc([C@H]2CC[C@H](C)CN2C(=O)C(=O)Nc2cncc(C(N)=O)c2)c1 (single isomer, unassigned) [Compound 321] | C (an IC50 ratio of less than 3 fold) |  |  |  |
| > 500 | > 500 | > 1000 | > 1000 | > 500 |  |  | Cc1cc([C@H]2CC[C@H](C)CN2C(=O)C(=O)Nc2cncc(C(N)=O)c2)cc(C)c1O (single isomer, unassigned) [Compound 326] | C (an IC50 ratio of less than 3 fold) |  |  |  |
| > 500 | > 500 | > 1000 | > 1000 | > 500 |  |  | CC(=O)N1CCC(c2cccc([C@@H]3CC[C@@H](C)CN3C(=O)C(=O)Nc3cnc(N)c(C)c3)c2)CC1 (single isomer, unassigned) [Compound 331] | C (an IC50 ratio of less than 3 fold) |  |  |  |
| > 500 | > 500 | > 1000 | > 1000 | > 500 |  |  | CC(=O)N1CCC(c2cccc([C@H]3CC[C@H](C)CN3C(=O)C(=O)Nc3cncc(C(N)=O)c3)c2)CC1 (single isomer, unassigned) [Compound 332] | C (an IC50 ratio of less than 3 fold) |  |  |  |
| > 500 | > 500 | > 1000 | > 1000 | > 500 |  |  | Cc1cc(NC(=O)C(=O)N2CCCC[C@@H]2C2CCCC2)cnc1N (single isomer, unassigned) [Compound 336] | C (an IC50 ratio of less than 3 fold) |  |  |  |
| > 500 | > 500 | > 1000 | > 1000 | > 500 |  |  | Cc1cc(NC(=O)C(=O)N2C[C@H](C)C[C@H](C)[C@H]2c2ccccc2)cnc1N (single isomer, unassigned) [Compound 343] | C (an IC50 ratio of less than 3 fold) |  |  |  |
| > 500 | > 500 | > 1000 | > 1000 | > 500 |  |  | COc1ncc(NC(=O)C(=O)N2C[C@@H](C)CC[C@H]2C2CCCCC2)cc1C(N)=O (single isomer, unassigned) [Compound 371] | C (an IC50 ratio of less than 3 fold) |  |  |  |
| 50 to 500 | < 50 | > 1000 | 100 to 1000 | 50 to 500 |  |  | C[C@@H]1CC[C@@H](c2csc3ccccc23)N(C(=O)C(=O)Nc2cncc(C(N)=O)c2)C1 (single isomer, unassigned) [Compound 463] | A (an IC50 ratio greater than or equal to 10 fold) |  |  |  |
| > 500 | > 500 | > 1000 | > 1000 | > 500 |  |  | C[C@H]1CC[C@H](c2cc(F)c(F)c(Cl)c2)N(C(=O)C(=O)Nc2cncc(C(N)=O)c2)C1 (single isomer, unassigned) [Compound 846] | C (an IC50 ratio of less than 3 fold) |  |  |  |
| > 500 | > 500 | > 1000 |  | > 500 |  | > 1000 | COc1ncc(NC(=O)C(=O)N2C[C@@H](C)C(F)(F)C[C@@H]2c2ccc(F)cc2)cc1C(N)=O (single isomer, unassigned) [Compound 1047] | C (an IC50 ratio of less than 3 fold) |  |  |  |
| > 500 | > 500 | > 1000 |  | > 500 |  | > 1000 | Cc1cc(NC(=O)C(=O)N2C[C@H](C)CC[C@H]2c2cc[nH]n2)cnc1N (single isomer, unassigned) [Compound 1050] | C (an IC50 ratio of less than 3 fold) |  |  |  |
| > 500 | > 500 | > 1000 |  | > 500 |  | > 1000 | COc1ncc(NC(=O)C(=O)N2C[C@H](C)CC[C@H]2c2ccc3nn(C)cc3c2)cc1C(N)=O (single isomer, unassigned) [Compound 1051] | B (an IC50 ratio greater than or equal to 3 fold but lower than 10 fold) |  |  |  |
| > 500 | 50 to 500 | > 1000 |  | > 500 |  | 100 to 1000 | Cc1cc(NC(=O)C(=O)N2C[C@@H](C)CC[C@H]2C23CC(C(N)=O)(C2)C3)cnc1N (single isomer, unassigned) [Compound 1053] | A (an IC50 ratio greater than or equal to 10 fold) |  |  |  |
| > 500 | > 500 | > 1000 |  | > 500 |  | > 1000 | CCc1cc(NC(=O)C(=O)N2C[C@H](C)CC[C@H]2c2cc3cn[nH]c3s2)cnc1N (single isomer, unassigned) [Compound 1055] | B (an IC50 ratio greater than or equal to 3 fold but lower than 10 fold) |  |  |  |
| 50 to 500 | < 50 | > 1000 |  | 50 to 500 |  | < 100 | COc1ncc(NC(=O)C(=O)N2C[C@@H](C)CC[C@@H]2c2ccc3nn(C)cc3c2)cc1C(N)=O (single isomer, unassigned) [Compound 1059] | A (an IC50 ratio greater than or equal to 10 fold) |  |  |  |
| > 500 | > 500 | > 1000 | > 1000 | > 500 |  |  | Cc1cc(NC(=O)C(=O)N2C[C@@H](C)CC[C@@H]2C23CC(C(N)=O)(C2)C3)cnc1N (single isomer, unassigned) [Compound 1061] |  |  |  | B (an IC50 ratio greater than or equal to 3 fold but lower than 10 fold) |
| 50 to 500 | < 50 | > 1000 | < 100 | 50 to 500 |  |  | COc1ncc(NC(=O)C(=O)N2C[C@H](C)C(F)(F)C[C@H]2c2ccc(F)cc2)cc1C(N)=O (single isomer, unassigned) [Compound 1068] |  |  |  | A (an IC50 ratio greater than or equal to 10 fold) |
| > 500 | > 500 | > 1000 | > 1000 | > 500 |  |  | Cc1cc(NC(=O)C(=O)N2C[C@H](C)CC[C@H]2C23CC(C(N)=O)(C2)C3)cnc1N (single isomer, unassigned) [Compound 1070] |  |  |  | B (an IC50 ratio greater than or equal to 3 fold but lower than 10 fold) |
| 50 to 500 | < 50 | > 1000 | > 1000 | 50 to 500 |  |  | Cc1cc(NC(=O)C(=O)N2C[C@@H](C)CC[C@@H]2c2cc[nH]n2)cnc1N (single isomer, unassigned) [Compound 1071] |  |  |  | C (an IC50 ratio of less than 3 fold) |
| < 50 | < 50 | 100 to 1000 | < 100 | 50 to 500 |  |  | CCc1cc(NC(=O)C(=O)N2C[C@@H](C)CC[C@@H]2c2cc3cn[nH]c3s2)cnc1N (single isomer, unassigned) [Compound 1075] |  |  |  | A (an IC50 ratio greater than or equal to 10 fold) |

| Compound | IC50 (PRMT5 [1]) [nM] | IC50 (PRMT5 [2]) [nM] | IC50 [3, 6] [nM] | IC50 [4, 7] [nM] | IC50 (PRMT5 [5]) [nM] | IC50 ([4]; SDMA in-cell western, HAP1 MTAP-deleted, read-out: HAP1 MTAP deleted IC50) [nM] | IC50 [4, 9] [nM] | MTAP intact/deleted ratio [4, 8] | IC50 ([3]; HAP1, read-out: MTAP HAP1 intact IC50) [nM] | IC50 ([4]; Homo sapiens, HAP1, read-out: HAP1 MTAP deleted IC50) [nM] | MTAP intact/deleted ratio [4, 10] |
| --- | --- | --- | --- | --- | --- | --- | --- | --- | --- | --- | --- |
| COc1ncc(NC(=O)C(=O)N2C[C@@H](C)CC[C@H]2c2ccccc2)cc1C(N)=O (single isomer, unassigned) [Compound 322] | > 500 | > 500 |  |  | > 500 |  |  | B (an IC50 ratio greater than or equal to 3 fold but lower than 10 fold) | > 1000 | > 1000 |  |
